Source: paper PMC11887051, “Discovery of ONO-2920632 (VU6011887): A Highly Selective and CNS Penetrant TREK-2 (TWIK-Related K+ Channel 2) Preferring Activator In Vivo Tool Compound” (ACS Chemical Neuroscience, 2025)
Like-named read-outs stand apart in the source and are kept apart here.

Key:
[1] = rat predicted hepatic clearance (hepatic microsomes); type: in vitro ADME
Procedure: Intrinsic clearance: Human or rat hepatic microsomes (0.5 mg/mL) and 1 µM test compound were incubated in 100 mM potassium phosphate pH 7.4 buffer with 3 mM MgCl2 at 37 °C with constant shaking. After a 5 min preincubation, the reaction was initiated by the addition of NADPH (1 mM). At selected time intervals (0, 3, 7, 15, 25, and 45 min), aliquots were taken and subsequently placed into a 96-well plate containing cold acetonitrile with internal standard (50 ng/mL carbamazepine). Plates were then centrifuged at 3000 rcf (4 °C) for 10 min, and the supernatant was transferred to a separate 96-well plate and diluted 1:1 with water for LC/MS/MS analysis. The in vitro half-life ( 1/2, min, Eq. 1), intrinsic clearance (CLint, mL/min/kg, Eq. 2), and subsequent predicted hepatic clearance (CLhep, mL/min/kg, Eq. 3) was determined employing the […]
where k represents the slope from linear regression analysis of the natural log percent remaining of a test compound as a function of incubation time […]
(2) CLint = in vitroT1/2 x mg microsomes x gram liver x kg body wt ascale-up factors: of 20 (human) or 45 (rat) […]
where Qh (hepatic blood flow, mL/min/kg) is 21 (human) or 70 (rat).
LC/MS/MS Bioanalysis of Samples from Plasma Protein Binding and Intrinsic Clearance […]
Samples were analyzed on a Thermo Electron TSQ Quantum Ultra triple quad mass spectrometer (San Jose, CA) via electrospray ionization (ESI) with two Themo Electron Accella pumps (San Jose, CA), and a Leap Technologies CTC PAL autosampler (Carrboro, NC). Analytes were separated by gradient elution on a dual column system with two Thermo Hypersil Gold (2.1 x 30 mm, 1.9 µm) columns (San Jose, CA) thermostated at 40 °C. HPLC mobile phase A was 0.1% formic acid in water and mobile phase B was 0.1% formic acid in acetonitrile. The gradient started […]
for 0.2 min; returned to 10% B in 0.1 min. The total run time was 1.3 min and the HPLC flow rate was 0.8 mL/min. While pump 1 ran the gradient method, pump 2 equilibrated the alternate column isocratically at 10% B. Compound optimization, data collection, and processing was performed using Thermo Electron's QuickQuan software (v2.3) and Xcalibur (v2.0.7 SP1).

[2] = rat plasma protein binding (equilibrium dialysis); type: in vitro ADME; details: pH 7.4, read-out: rat plasma fu
Procedure: In vitro Plasma protein binding and Brain homogenate binding: Determination of fraction unbound (f u) in plasma was conducted in vitro via equilibrium dialysis using HTDialysis (HTD) membrane plates. The top half of the plate was filled with 100 uL of Dubelco’s Phosphate Buffered Saline, pH 7.4 (DPBS). Compounds were diluted into plasma from each species (5 µM final concentration), which was aliquoted in triplicate to the ‘bottom half’ of the prepared HTD plate wells. The HTD plate was sealed and incubated for 6 hours at 37 °C. Following incubation, each well (both top and bottom halves) were transferred (20 µL) to the corresponding wells of a 96-shallow-well (V-bottom) plate. The daughter plates were then matrix-matched (DPBS side wells received equal volume of plasma, and plasma side wells received equal volume of DPBS), and extraction solution (120 µL; acetonitrile containing 50 nM carbamazepine as IS) was added to all wells of both daughter plates to precipitate protein and extract test article. The plates were then sealed and centrifuged (3500 rcf) for 10 minutes at ambient temperature. Supernatant (60 µL) from each well of the daughter plates was then transferred to the corresponding wells of new daughter plates (96-shallow-well, V bottom) containing water (Milli-Q, 60 µL/well), and the plates were sealed in preparation for LC-MS/MS analysis (see LC-MS/MS analysis method below).
The unbound fraction (f u) was calculated following the equation below, and mean values for each species were calculated from 3 replicates. […]
Fraction unbound for both plasma and brain samples was determined using Equation 4.
Equation 4 Determination of fraction unbound in plasma. […]

TREK-1 [3] = molecular target: T1, TREK-1 (Homo sapiens, UniProt O95069); test: TREK-1 activation, BL-1249 series (assay not given); type: cell-based; details: assay format not stated
T1 sequence (O95069 1-426): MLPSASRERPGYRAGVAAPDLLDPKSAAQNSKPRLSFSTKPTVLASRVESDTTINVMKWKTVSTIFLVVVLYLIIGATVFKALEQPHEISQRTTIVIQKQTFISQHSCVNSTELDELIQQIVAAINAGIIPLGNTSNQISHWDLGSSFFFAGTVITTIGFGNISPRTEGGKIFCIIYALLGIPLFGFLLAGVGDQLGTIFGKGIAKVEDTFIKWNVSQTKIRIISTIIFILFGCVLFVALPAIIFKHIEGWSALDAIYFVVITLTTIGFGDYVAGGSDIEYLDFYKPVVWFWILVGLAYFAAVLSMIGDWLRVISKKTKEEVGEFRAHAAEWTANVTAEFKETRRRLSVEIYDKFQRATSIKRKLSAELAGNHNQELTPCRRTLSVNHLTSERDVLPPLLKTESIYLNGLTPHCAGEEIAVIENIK

TREK-2 = molecular target: T2, TREK-2 (Homo sapiens, UniProt P57789); test: TREK-2 activation, BL-1249 series (assay not given); type: cell-based; details: assay format not stated
T2 sequence (P57789 1-538): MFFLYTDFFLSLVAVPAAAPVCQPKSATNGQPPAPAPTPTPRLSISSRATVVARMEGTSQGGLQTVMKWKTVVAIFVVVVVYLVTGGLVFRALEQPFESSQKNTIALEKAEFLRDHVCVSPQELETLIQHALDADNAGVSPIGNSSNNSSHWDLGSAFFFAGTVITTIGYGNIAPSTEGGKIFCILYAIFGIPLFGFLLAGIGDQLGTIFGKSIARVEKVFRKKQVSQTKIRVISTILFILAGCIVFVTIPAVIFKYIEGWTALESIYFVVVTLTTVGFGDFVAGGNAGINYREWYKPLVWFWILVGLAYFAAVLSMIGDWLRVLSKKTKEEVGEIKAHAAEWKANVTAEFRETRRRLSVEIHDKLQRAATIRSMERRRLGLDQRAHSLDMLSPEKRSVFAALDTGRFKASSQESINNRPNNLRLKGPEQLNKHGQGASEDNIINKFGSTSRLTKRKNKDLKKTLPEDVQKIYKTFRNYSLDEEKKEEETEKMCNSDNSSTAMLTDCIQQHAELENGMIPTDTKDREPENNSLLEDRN

TREK-1 [4] = molecular target: T1, TREK-1; set-up: method as in PMID 32851651; details: read-out: functional EC50 for activation of TREK-1; cited from earlier work
rodents = test system: rodents; set-up: method as in PMID 32851651; details: cited from earlier work

rat CLhep (predicted hepatic clearance) [1] [mL/min/kg]	fraction unbound at 6 h, 5 µM [2]	EC50 (TREK-1 [3]) [µM]	Emax (TREK-1 [3]) [%]	EC50 (TREK-2) [µM]	Emax (TREK-2) [%]	SMILES	EC50 (TREK-1 [4]) [µM]	morphine-like adverse events at efficacious doses (rodents)	antinociceptive activity (rodents; naïve rodents and models of neuropathic and inflammatory pain)
26.8	0.042	3.6	67	12.9	129	O=c1[nH]c(-c2ccc(F)cc2Nc2cccc(C(F)(F)F)c2)no1 [Compound 11]	–	–	–
–	–	–	–	–	–	N#C/C(=C\c1ccoc1)C(=O)O [Compound 3]	37	did not induce respiratory depression, rewarding effects, depression, constipation or other morphine-inducing adverse events	antinociceptive activity
